Reference: ChEMBL document CHEMBL5537147, “Development of membrane-targeting TPP+-chloramphenicol conjugates to combat methicillin-resistant staphylococcus aureus (MRSA) infections” (Eur J Med Chem, 2024)
The source made the active and inactive calls.

Assays:
Acinetobacter baumannii [1] = test: Antibacterial activity against Acinetobacter baumannii 1309 assessed as inhibition of bacterial growth incubated for 16 to 18 hrs by CLSI based two-fold serial dilution method; type: functional; conditions: time 16-18 hrs
Cell membrane [2] = test: Induction of cell membrane damage in methicillin-resistant Staphylococcus aureus USA300 assessed as disruption of cell membrane at 16 ug/ml measured after 0.5 hrs by SEM analysis; type: cell membranes; conditions: dose 16.0 µg/ml
Staphylococcus aureus [3] = test: Bactericidal against methicillin-resistant Staphylococcus aureus USA300 assessed as elimination of bacterial colonies at 16 ug/ml measured within 5 hrs by time kill assay relative to control; type: functional; conditions: dose 16 µg/ml
[4] = Cytotoxicity against human L02 cells assessed as inhibition of cell growth incubated for 24 hrs by MTT assay; type: toxicity, cell-based
Erythrocyte [5] = test: Hemolytic activity in sheep RBC at 30 ug/ml incubated for 1 hr by absorbance based analysis; type: toxicity, cell-based, Ovis aries; conditions: dose 30 µg/ml
Pseudomonas aeruginosa [6] = test: Antibacterial activity against Pseudomonas aeruginosa 408 assessed as inhibition of bacterial growth incubated for 16 to 18 hrs by CLSI based two-fold serial dilution method; type: functional; conditions: time 16-18 hrs
Staphylococcus aureus [7] = test: Antibacterial activity against methicillin-resistant Staphylococcus aureus 330041 assessed as inhibition of bacterial growth incubated for 16 to 18 hrs by CLSI based two-fold serial dilution method; type: functional; conditions: time 16-18 hrs
Staphylococcus aureus [8] = test: Antibacterial activity against methicillin-resistant Staphylococcus aureus 3390 assessed as inhibition of bacterial growth incubated for 16 to 18 hrs by CLSI based two-fold serial dilution method; type: functional; conditions: time 16-18 hrs
[9] = Toxicity in ICR mouse infected with methicillin-resistant Staphylococcus aureus USA300 assessed as reduction in body weight at 10 mg/kg, sc administered as dual dose and measured after 3 days; type: organism-based; conditions: in vivo, 72 h, time 3 day
Cell membrane [10] = test: Disruption of cell membrane integrity in methicillin-resistant Staphylococcus aureus USA300 assessed as increase in fluorescence intensity measured after 0 to 30 mins by SYTOX Green staining based analysis; type: cell membranes; conditions: dose 2-16 µg/ml, time 0-30 min
Pseudomonas aeruginosa [11] = test: Antibacterial activity against Pseudomonas aeruginosa 535 assessed as inhibition of bacterial growth incubated for 16 to 18 hrs by CLSI based two-fold serial dilution method; type: functional; conditions: time 16-18 hrs
Cell membrane [12] = test: Induction of cell membrane damage in methicillin-resistant Staphylococcus aureus USA300 assessed as appearance of wrinkles in cell surface at 16 ug/ml measured after 0.5 hrs by SEM analysis; type: cell membranes; conditions: dose 16.0 µg/ml
Staphylococcus aureus [13] = test: Resistance development in methicillin-resistant Staphylococcus aureus USA300 assessed as increase in MIC measured after 15 passages; type: functional, organism-based
Staphylococcus aureus [14] = test: Antibacterial activity against methicillin-resistant Staphylococcus aureus 3392 assessed as inhibition of bacterial growth incubated for 16 to 18 hrs by CLSI based two-fold serial dilution method; type: functional; conditions: time 16-18 hrs
HEK-293T = test: Cytotoxicity against HEK293T cells assessed as effect on cell viability at 35 ug/ml incubated for 24 hrs by MTT assay; type: toxicity, cell-based; conditions: human, dose 35 µg/ml
Staphylococcus aureus [15] = test: Antibacterial activity against methicillin-resistant Staphylococcus aureus USA300 assessed as inhibition of bacterial growth incubated for 16 to 18 hrs by CLSI based two-fold serial dilution method; type: functional; conditions: time 16-18 hrs
Acinetobacter baumannii [16] = test: Antibacterial activity against Acinetobacter baumannii 1310 assessed as inhibition of bacterial growth incubated for 16 to 18 hrs by CLSI based two-fold serial dilution method; type: functional; conditions: time 16-18 hrs
Staphylococcus aureus [17] = test: Bactericidal against methicillin-resistant Staphylococcus aureus USA300 assessed as total eradication of bacterial colonies at 1 to 2 times MIC measured upto 7 hrs by time kill assay; type: functional, organism-based
Staphylococcus aureus [18] = test: Antibacterial activity against methicillin-resistant Staphylococcus aureus USA300 infected in ICR mouse assessed as reduction in bacterial load in infected thigh at 10 mg/kg, sc pre-infected with bacteria for 2 hrs followed by compound administration as dual dose and measured after 3 days; type: functional, organism-based; conditions: time 3.0 day
Staphylococcus aureus [19] = test: Bactericidal against methicillin-resistant Staphylococcus aureus USA300 assessed as reduction in bacterial colonies at 32 ug/ml measured upto 7 hrs by time kill assay; type: functional, organism-based; conditions: dose 32.0 µg/ml
[20] = Toxicity in ICR mouse infected with methicillin-resistant Staphylococcus aureus USA300 assessed as reduction in body weight at 20 mg/kg, sc administered as dual dose and measured after 3 days; type: organism-based; conditions: in vivo, 72 h, time 3 day
Erythrocyte [21] = test: Hemolytic activity in sheep RBC at 20 ug/ml incubated for 1 hr by absorbance based analysis; type: toxicity, cell-based, Ovis aries; conditions: dose 20 µg/ml
Staphylococcus aureus [22] = test: Antibacterial activity against methicillin-resistant Staphylococcus aureus USA300 infected in ICR mouse assessed as reduction in bacterial load in infected thigh at 20 mg/kg, sc pre-infected with bacteria for 2 hrs followed by compound administration as dual dose and measured after 3 days; type: functional, organism-based; conditions: time 3.0 day
Staphylococcus aureus [23] = test: Bactericidal against methicillin-resistant Staphylococcus aureus USA300 assessed as elimination of bacterial colonies at 16 ug/ml measured within 3 hrs by time kill assay relative to control; type: functional; conditions: dose 16 µg/ml
Cell membrane [24] = test: Disruption of cell membrane integrity in methicillin-resistant Staphylococcus aureus USA300 assessed as increase in fluorescence intensity measured after 0 to 100 mins by SYTOX Green staining based analysis; type: cell membranes; conditions: dose 2-32 µg/ml, time 0-100 min
Cell membrane [25] = test: Induction of cell membrane damage in methicillin-resistant Staphylococcus aureus USA300 assessed as disruption of cell membrane at 8 ug/ml measured after 0.5 hrs by SEM analysis; type: cell membranes; conditions: dose 8.0 µg/ml
Cell membrane [26] = test: Induction of cell membrane damage in methicillin-resistant Staphylococcus aureus USA300 assessed as appearance of wrinkles in cell surface at 8 ug/ml measured after 0.5 hrs by SEM analysis; type: cell membranes; conditions: dose 8.0 µg/ml

Br.O=C(CCCCCCCCC[P+](c1ccc(F)cc1)(c1ccc(F)cc1)c1ccc(F)cc1)OC[C@H](NC(=O)C(Cl)Cl)[C@H](O)c1ccc([N+](=O)[O-])cc1
active: Activity (Cell membrane [2]) | Activity (Cell membrane [10]) Dose-Dependent Effect | Activity (Cell membrane [12]) | Activity (Staphylococcus aureus [19])
> 64 µg/mL: MIC (Acinetobacter baumannii [1]) | IC50 at 24 h [4] | MIC (Pseudomonas aeruginosa [6]) | MIC (Pseudomonas aeruginosa [11]) | MIC (Acinetobacter baumannii [16])
Non-Toxic: Activity (Erythrocyte [5]) | Activity [9] | Activity (HEK-293T)
2 µg/mL: MIC (Staphylococcus aureus [8]) | MIC (Staphylococcus aureus [14]) | MIC (Staphylococcus aureus [15])
inactive: Activity (Staphylococcus aureus [13]) | Activity (Staphylococcus aureus [17]) | Activity (Staphylococcus aureus [18])
1 µg/mL: MIC (Staphylococcus aureus [7])
100%: Activity (Staphylococcus aureus [3])

CN[C@H](CC(C)C)C(=O)N[C@H]1C(=O)N[C@@H](CC(N)=O)C(=O)N[C@H]2C(=O)N[C@H]3C(=O)N[C@H](C(=O)N[C@H](C(=O)O)c4cc(O)cc(O)c4-c4cc3ccc4O)[C@H](O)c3ccc(c(Cl)c3)Oc3cc2cc(c3O[C@@H]2O[C@H](CO)[C@@H](O)[C@H](O)[C@H]2O[C@H]2C[C@](C)(N)[C@H](O)[C@H](C)O2)Oc2ccc(cc2Cl)[C@H]1O [VANCOMYCIN]
> 64 µg/mL: MIC (Acinetobacter baumannii [1]) | IC50 at 24 h [4] | MIC (Pseudomonas aeruginosa [6]) | MIC (Pseudomonas aeruginosa [11]) | MIC (Acinetobacter baumannii [16])
Non-Toxic: Activity [20]

O=C(N[C@H](CO)[C@H](O)c1ccc([N+](=O)[O-])cc1)C(Cl)Cl [CHLORAMPHENICOL]
Non-Toxic: Activity [20]
> 64 µg/mL: MIC (Acinetobacter baumannii [1]) | IC50 at 24 h [4] | MIC (Pseudomonas aeruginosa [6]) | MIC (Staphylococcus aureus [7]) | MIC (Staphylococcus aureus [8]) | MIC (Pseudomonas aeruginosa [11]) | MIC (Staphylococcus aureus [14]) | MIC (Staphylococcus aureus [15]) | MIC (Acinetobacter baumannii [16])
inactive: Activity (Staphylococcus aureus [18])

Br.O=C(CCCCCCCCC[P+](c1ccccc1)(c1ccccc1)c1ccccc1)OC[C@H](NC(=O)C(Cl)Cl)[C@H](O)c1ccc([N+](=O)[O-])cc1
Non-Toxic: Activity (Erythrocyte [21]) | Activity [20] | Activity (HEK-293T)
inactive: Activity (Staphylococcus aureus [13]) | Activity (Staphylococcus aureus [17])
100%: Activity (Staphylococcus aureus [23])
1 µg/mL: MIC (Staphylococcus aureus [7]) | MIC (Staphylococcus aureus [8]) | MIC (Staphylococcus aureus [14]) | MIC (Staphylococcus aureus [15])
> 64 µg/mL: MIC (Acinetobacter baumannii [1]) | MIC (Pseudomonas aeruginosa [6]) | MIC (Pseudomonas aeruginosa [11])
active: Activity (Staphylococcus aureus [22]) | Activity (Cell membrane [24]) Dose-Dependent Effect | Activity (Cell membrane [25]) | Activity (Cell membrane [26]) | Activity (Staphylococcus aureus [19])
> 32 µg/mL: IC50 at 24 h [4]
32 µg/mL: MIC (Acinetobacter baumannii [16])

Br.Cc1ccc([P+](CCCCCCCCCC(=O)OC[C@H](NC(=O)C(Cl)Cl)[C@H](O)c2ccc([N+](=O)[O-])cc2)(c2ccc(C)cc2)c2ccc(C)cc2)cc1
14.7 µg/mL: IC50 at 24 h [4]
0.5 µg/mL: MIC (Staphylococcus aureus [7]) | MIC (Staphylococcus aureus [8]) | MIC (Staphylococcus aureus [14]) | MIC (Staphylococcus aureus [15])
> 64 µg/mL: MIC (Acinetobacter baumannii [1]) | MIC (Pseudomonas aeruginosa [6]) | MIC (Pseudomonas aeruginosa [11]) | MIC (Acinetobacter baumannii [16])

O=C(O)CCCC[P+](c1ccccc1)(c1ccccc1)c1ccccc1.[Br-]
> 64 µg/mL: MIC (Acinetobacter baumannii [1]) | IC50 at 24 h [4] | MIC (Pseudomonas aeruginosa [6]) | MIC (Staphylococcus aureus [7]) | MIC (Staphylococcus aureus [8]) | MIC (Pseudomonas aeruginosa [11]) | MIC (Staphylococcus aureus [14]) | MIC (Staphylococcus aureus [15]) | MIC (Acinetobacter baumannii [16])

O=C(O)CCCCCCCCCCCCCCCCC[P+](c1ccccc1)(c1ccccc1)c1ccccc1.[Br-]
> 64 µg/mL: MIC (Acinetobacter baumannii [1]) | IC50 at 24 h [4] | MIC (Pseudomonas aeruginosa [6]) | MIC (Staphylococcus aureus [7]) | MIC (Staphylococcus aureus [8]) | MIC (Pseudomonas aeruginosa [11]) | MIC (Staphylococcus aureus [14]) | MIC (Staphylococcus aureus [15]) | MIC (Acinetobacter baumannii [16])

O=C(O)CCCCCCCCC[P+](c1ccccc1)(c1ccccc1)c1ccccc1.[Br-]
> 64 µg/mL: MIC (Acinetobacter baumannii [1]) | IC50 at 24 h [4] | MIC (Pseudomonas aeruginosa [6]) | MIC (Staphylococcus aureus [7]) | MIC (Staphylococcus aureus [8]) | MIC (Pseudomonas aeruginosa [11]) | MIC (Staphylococcus aureus [14]) | MIC (Staphylococcus aureus [15]) | MIC (Acinetobacter baumannii [16])

O=C(O)CC[P+](c1ccccc1)(c1ccccc1)c1ccccc1.[Br-]
> 64 µg/mL: MIC (Acinetobacter baumannii [1]) | IC50 at 24 h [4] | MIC (Pseudomonas aeruginosa [6]) | MIC (Staphylococcus aureus [7]) | MIC (Staphylococcus aureus [8]) | MIC (Pseudomonas aeruginosa [11]) | MIC (Staphylococcus aureus [14]) | MIC (Staphylococcus aureus [15]) | MIC (Acinetobacter baumannii [16])
